Data taken from patent publication US20200339625A1, “NOVEL RADIOMETAL-BINDING COMPOUNDS FOR DIAGNOSIS OR TREATMENT OF PROSTATE SPECIFIC MEMBRANE ANTIGEN-EXPRESSING CANCER” (PROVINCIAL HEALTH SERVICES AUTHORITY, priority 2017, published 2020).

Assays:
[1] = test system: mice bearing LNCaP tumor xenografts; test: PET/CT imaging of 68Ga-labeled compounds; type: in vivo; conditions: for change of tumor uptake from 1 h to 3 h post-injection / excretion pathway: PET/CT images; for blood retention (qualitative): PET/CT images at 1 h and 3 h post-injection, comparison within the figure
Method in brief: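 Male NOD SCID IL2Rγ KO mice bore subcutaneous LNCaP xenografts (1×10^7 cells, tumours 5-8 mm) and received 6-8 MBq tracer via tail vein under 2% isoflurane. At 50 min p.i., a 10-min CT and a 10-min static PET were acquired. For the 3 h time point, scanning began at 170 min p.i. with a 15-min static PET.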

[2] = test system: mice bearing PSMA-expressing LNCAP cancer xenografts; test: Biodistribution of 68Ga-labeled compounds; type: in vivo
Method in brief: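 NOD-SCID IL2RγKO male mice carried subcutaneous LNCaP xenografts grown to 5-8 mm over 5-6 weeks. Organs and blood were collected at 1 or 3 h after injection of the radiotracer and gamma-counted. Uptake was normalized to injected dose via a standard curve and expressed as %ID/g.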

## O=C([O-])CN1CCN(CC(=O)[O-])CCN(CC(=O)NCCCC[C@H](NC(=O)CNC(=O)CCCc2ccc(Br)cc2)C(=O)NC[C@H]2CC[C@H](C(=O)N[C@@H](Cc3ccc4ccccc4c3)C(=O)NCCCC[C@H](NC(=O)N[C@@H](CCC(=O)O)C(=O)O)C(=O)O)CC2)CCN(CC(=O)[O-])CC1.[68Ga+3] [^68Ga-HTK03058]
[1]
  change of tumor uptake from 1 h to 3 h post-injection: uptake in tumors increases over time
  blood retention (qualitative): some extent of blood retention
[2]; 1 h post-injection
  Adrenal glands uptake: 4.20 ± 1.21 % ID/g
  Blood uptake: 26.7 ± 3.02 % ID/g
  Bone uptake: 1.04 ± 0.26 % ID/g
  Brain uptake: 0.36 ± 0.06 % ID/g
  Fat uptake: 2.13 ± 0.57 % ID/g
  Heart uptake: 6.09 ± 0.97 % ID/g
  Intestine uptake: 1.64 ± 0.27 % ID/g
  Kidneys uptake: 14.7 ± 2.13 % ID/g
  Lacrimal uptake: 0.69 ± 0.26 % ID/g
  Liver uptake: 3.87 ± 1.00 % ID/g
  Lungs uptake: 10.2 ± 2.20 % ID/g
  Muscle uptake: 1.37 ± 0.17 % ID/g
  Pancreas uptake: 2.00 ± 0.17 % ID/g
  Salivary uptake: 3.90 ± 0.70 % ID/g
  Seminal uptake: 1.31 ± 0.38 % ID/g
  Spleen uptake: 3.13 ± 1.05 % ID/g
  Stomach uptake: 0.58 ± 0.20 % ID/g
  Tail uptake: 8.87 ± 4.26 % ID/g
  Testes uptake: 2.74 ± 0.38 % ID/g
  Thyroid uptake: 4.95 ± 0.79 % ID/g
  Tumor uptake: 11.2 ± 3.33 % ID/g
  Tumor:Blood ratio: 0.42 ± 0.11
  Tumor:Muscle ratio: 8.04 ± 1.69
  Tumor:kidney ratio: 0.75 ± 0.17
  Urine uptake: 3.97 ± 2.56 % ID/g
[2]; 3 h post-injection
  Adrenal glands uptake: 4.46 ± 1.42 % ID/g
  Blood uptake: 21.2 ± 2.21 % ID/g
  Bone uptake: 1.54 ± 0.36 % ID/g
  Brain uptake: 0.30 ± 0.06 % ID/g
  Fat uptake: 2.47 ± 1.61 % ID/g
  Heart uptake: 4.85 ± 0.67 % ID/g
  Intestine uptake: 1.63 ± 0.18 % ID/g
  Kidneys uptake: 17.5 ± 3.83 % ID/g
  Lacrimal uptake: 1.44 ± 0.37 % ID/g
  Liver uptake: 2.80 ± 0.46 % ID/g
  Lungs uptake: 8.21 ± 1.21 % ID/g
  Muscle uptake: 1.33 ± 0.24 % ID/g
  Pancreas uptake: 1.96 ± 0.20 % ID/g
  Salivary uptake: 3.45 ± 0.40 % ID/g
  Seminal uptake: 1.15 ± 0.16 % ID/g
  Spleen uptake: 2.11 ± 0.44 % ID/g
  Stomach uptake: 0.79 ± 0.23 % ID/g
  Tail uptake: 6.86 ± 2.42 % ID/g
  Testes uptake: 3.02 ± 0.80 % ID/g
  Thyroid uptake: 3.72 ± 0.33 % ID/g
  Tumor uptake: 14.2 ± 1.99 % ID/g
  Tumor:Blood ratio: 0.67 ± 0.07
  Tumor:Muscle ratio: 10.8 ± 1.56
  Tumor:kidney ratio: 0.83 ± 0.11
  Urine uptake: 6.15 ± 3.78 % ID/g

## O=C([O-])CN1CCN(CC(=O)[O-])CCN(CC(=O)NCCCC[C@H](NC(=O)CNC(=O)CCc2ccccc2)C(=O)NC[C@H]2CC[C@H](C(=O)N[C@@H](Cc3ccc4ccccc4c3)C(=O)NCCCC[C@H](NC(=O)N[C@@H](CCC(=O)O)C(=O)O)C(=O)O)CC2)CCN(CC(=O)[O-])CC1.[68Ga+3] [^68Ga-HTK03082]
[1]
  excretion pathway: excreted mainly by the renal pathway
[2]; 1 h post-injection
  Adrenal glands uptake: 2.19 ± 0.76 % ID/g
  Blood uptake: 1.37 ± 0.23 % ID/g
  Bone uptake: 0.15 ± 0.06 % ID/g
  Brain uptake: 0.03 ± 0.01 % ID/g
  Fat uptake: 0.61 ± 0.09 % ID/g
  Heart uptake: 0.40 ± 0.07 % ID/g
  Intestine uptake: 0.33 ± 0.07 % ID/g
  Kidneys uptake: 81.6 ± 12.6 % ID/g
  Lacrimal uptake: 0.08 ± 0.03 % ID/g
  Liver uptake: 0.39 ± 0.09 % ID/g
  Lungs uptake: 1.39 ± 0.27 % ID/g
  Muscle uptake: 0.33 ± 0.15 % ID/g
  Pancreas uptake: 0.47 ± 0.26 % ID/g
  Salivary uptake: 1.17 ± 0.27 % ID/g
  Seminal uptake: 0.81 ± 0.94 % ID/g
  Spleen uptake: 1.12 ± 0.19 % ID/g
  Stomach uptake: 0.10 ± 0.03 % ID/g
  Tail uptake: 0.84 ± 0.14 % ID/g
  Testes uptake: 0.42 ± 0.05 % ID/g
  Thyroid uptake: 0.58 ± 0.11 % ID/g
  Tumor uptake: 13.6 ± 2.16 % ID/g
  Tumor:Blood ratio: 10.1 ± 1.91
  Tumor:Muscle ratio: 49.2 ± 24.2
  Tumor:kidney ratio: 0.17 ± 0.02
  Urine uptake: 349 ± 209 % ID/g
[2]; 3 h post-injection
  Adrenal glands uptake: 0.38 ± 0.06 % ID/g
  Blood uptake: 0.25 ± 0.04 % ID/g
  Bone uptake: 0.01 ± 0.01 % ID/g
  Brain uptake: 0.01 ± 0.00 % ID/g
  Fat uptake: 0.21 ± 0.01 % ID/g
  Heart uptake: 0.07 ± 0.02 % ID/g
  Intestine uptake: 0.19 ± 0.02 % ID/g
  Kidneys uptake: 22.3 ± 9.97 % ID/g
  Lacrimal uptake: 0.01 ± 0.01 % ID/g
  Liver uptake: 0.17 ± 0.02 % ID/g
  Lungs uptake: 0.28 ± 0.07 % ID/g
  Muscle uptake: 0.11 ± 0.11 % ID/g
  Pancreas uptake: 0.09 ± 0.03 % ID/g
  Salivary uptake: 0.20 ± 0.07 % ID/g
  Seminal uptake: 0.12 ± 0.08 % ID/g
  Spleen uptake: 0.24 ± 0.08 % ID/g
  Stomach uptake: 0.05 ± 0.01 % ID/g
  Tail uptake: 0.24 ± 0.14 % ID/g
  Testes uptake: 0.13 ± 0.08 % ID/g
  Thyroid uptake: 0.16 ± 0.09 % ID/g
  Tumor uptake: 14.5 ± 2.12 % ID/g
  Tumor:Blood ratio: 58.1 ± 12.6
  Tumor:Muscle ratio: 223 ± 122
  Tumor:kidney ratio: 1.12 ± 1.30
  Urine uptake: 191 ± 83.1 % ID/g

## O=C([O-])CN1CCN(CC(=O)[O-])CCN(CC(=O)NCCCC[C@H](NC(=O)CNC(=O)CCCc2ccc(F)cc2)C(=O)NC[C@H]2CC[C@H](C(=O)N[C@@H](Cc3ccc4ccccc4c3)C(=O)NCCCC[C@H](NC(=O)N[C@@H](CCC(=O)O)C(=O)O)C(=O)O)CC2)CCN(CC(=O)[O-])CC1.[68Ga+3] [^68Ga-HTK03085]
[1]
  change of tumor uptake from 1 h to 3 h post-injection: increases over time
  excretion pathway: excreted mainly by the renal pathway
  blood retention (qualitative): significantly higher blood retention
[2]; 1 h post-injection
  Adrenal glands uptake: 3.57 ± 1.09 % ID/g
  Blood uptake: 5.73 ± 0.93 % ID/g
  Bone uptake: 0.34 ± 0.08 % ID/g
  Brain uptake: 0.08 ± 0.01 % ID/g
  Fat uptake: 1.36 ± 0.28 % ID/g
  Heart uptake: 1.46 ± 0.27 % ID/g
  Intestine uptake: 0.61 ± 0.10 % ID/g
  Kidneys uptake: 85.8 ± 8.36 % ID/g
  Lacrimal uptake: 0.11 ± 0.06 % ID/g
  Liver uptake: 1.01 ± 0.29 % ID/g
  Lungs uptake: 3.67 ± 0.72 % ID/g
  Muscle uptake: 0.58 ± 0.08 % ID/g
  Pancreas uptake: 0.86 ± 0.09 % ID/g
  Salivary uptake: 2.61 ± 0.59 % ID/g
  Seminal uptake: 1.42 ± 2.17 % ID/g
  Spleen uptake: 3.90 ± 1.57 % ID/g
  Stomach uptake: 0.24 ± 0.05 % ID/g
  Tail uptake: 1.79 ± 0.36 % ID/g
  Testes uptake: 1.03 ± 0.12 % ID/g
  Thyroid uptake: 1.70 ± 0.25 % ID/g
  Tumor uptake: 18.8 ± 3.35 % ID/g
  Tumor:Blood ratio: 3.33 ± 0.75
  Tumor:Muscle ratio: 33.2 ± 7.91
  Tumor:kidney ratio: 0.22 ± 0.03
  Urine uptake: 181 ± 97.2 % ID/g
[2]; 3 h post-injection
  Adrenal glands uptake: 1.37 ± 0.48 % ID/g
  Blood uptake: 2.10 ± 0.48 % ID/g
  Bone uptake: 0.13 ± 0.04 % ID/g
  Brain uptake: 0.04 ± 0.01 % ID/g
  Fat uptake: 0.70 ± 0.13 % ID/g
  Heart uptake: 0.52 ± 0.09 % ID/g
  Intestine uptake: 0.39 ± 0.08 % ID/g
  Kidneys uptake: 63.4 ± 16.6 % ID/g
  Lacrimal uptake: 0.04 ± 0.07 % ID/g
  Liver uptake: 0.61 ± 0.08 % ID/g
  Lungs uptake: 1.50 ± 0.26 % ID/g
  Muscle uptake: 0.31 ± 0.08 % ID/g
  Pancreas uptake: 0.35 ± 0.09 % ID/g
  Salivary uptake: 1.03 ± 0.33 % ID/g
  Seminal uptake: 0.21 ± 0.08 % ID/g
  Spleen uptake: 1.05 ± 0.09 % ID/g
  Stomach uptake: 0.16 ± 0.09 % ID/g
  Tail uptake: 0.60 ± 0.15 % ID/g
  Testes uptake: 0.60 ± 0.09 % ID/g
  Thyroid uptake: 0.64 ± 0.10 % ID/g
  Tumor uptake: 28.9 ± 4.27 % ID/g
  Tumor:Blood ratio: 14.2 ± 2.77
  Tumor:Muscle ratio: 95.8 ± 20.9
  Tumor:kidney ratio: 0.48 ± 0.11
  Urine uptake: 141 ± 54.3 % ID/g
